From patent publication US20040127492A1 (Pharmacia Corporation, priority 2002, published 2004)
Like-named read-outs stand apart in the source and are kept apart here. One block for each compound: values may come before it.

Assays:
MAPKAPK2 (MK-2) = MAPKAPK2 (MK-2) (Homo sapiens, UniProt P49137); test: Determination of MK-2 IC50 (HSP-peptide phosphorylation, anion exchange resin capture assay); format: biochemical
Summary of the method: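 Radiometric peptide assay: 15 nM p38α-activated MK-2, HSP-peptide, 0.03 mM ATP with [γ33P]ATP, 2% DMSO, pH 7.5, 30° C for 30 min; unreacted ATP removed on AG 1×8 resin before counting. Six concentrations in ten-fold steps, each in triplicate, gave IC50 in μM.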

MK-3 = MK-3 (Homo sapiens, UniProt Q16644); test: MK-3 inhibition IC50 (similar method to MK-2, with appropriate modifications); format: biochemical
[1] = Table 1, phenoxypyrazole MK-2 inhibitors, read-out: MK-2 Avg, IC50
[2] = Table 1, phenoxypyrazole MK-2 inhibitors, read-out: MK-3 Avg. IC50
[3] = Table 5, other cyclic pyrazole MK-2 inhibiting compounds, read-out: MK-2 Avg. IC50
[4] = Table 5, other cyclic pyrazole MK-2 inhibiting compounds, read-out: MK-3 Avg. IC50
[5] = Table 2, pyrazolylpyrazole MK-2 inhibitors, read-out: MK-2 Avg. IC50
[6] = Table 2, pyrazolylpyrazole MK-2 inhibitors, read-out: MK-3 Avg. IC50

MAPKAPK2 (MK-2), sequence (P49137 whole entry, species assumed): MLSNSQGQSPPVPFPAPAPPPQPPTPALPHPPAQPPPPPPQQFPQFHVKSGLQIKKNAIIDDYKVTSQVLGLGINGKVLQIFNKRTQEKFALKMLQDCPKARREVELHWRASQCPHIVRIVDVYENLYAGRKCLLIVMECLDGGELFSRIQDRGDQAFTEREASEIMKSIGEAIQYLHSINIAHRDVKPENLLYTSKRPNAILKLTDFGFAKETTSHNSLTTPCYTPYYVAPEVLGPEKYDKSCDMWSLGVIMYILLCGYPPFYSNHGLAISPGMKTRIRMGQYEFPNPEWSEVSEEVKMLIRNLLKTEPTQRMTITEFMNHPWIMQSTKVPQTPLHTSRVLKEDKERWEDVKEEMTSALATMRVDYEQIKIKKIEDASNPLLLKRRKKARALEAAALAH
MK-3, sequence (Q16644 whole entry, species assumed): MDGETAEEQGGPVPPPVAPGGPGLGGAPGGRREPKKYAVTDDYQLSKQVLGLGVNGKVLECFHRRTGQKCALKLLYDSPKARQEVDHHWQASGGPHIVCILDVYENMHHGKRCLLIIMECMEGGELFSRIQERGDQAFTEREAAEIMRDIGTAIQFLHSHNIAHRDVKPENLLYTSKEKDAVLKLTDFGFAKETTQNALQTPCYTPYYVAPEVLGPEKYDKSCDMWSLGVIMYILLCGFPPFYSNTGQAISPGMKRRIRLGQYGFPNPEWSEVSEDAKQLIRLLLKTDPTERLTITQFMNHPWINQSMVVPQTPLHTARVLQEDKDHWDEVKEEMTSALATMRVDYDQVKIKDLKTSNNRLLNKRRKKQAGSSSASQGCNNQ

SMILES: COC(=O)c1c2c(nn1CCCNC(=O)OC(C)(C)C)-c1ccc(OC)cc1CC2 [Example 186]
- IC50 (MAPKAPK2 (MK-2); [1]): > 200 µM
- IC50 (MK-3; [2]): > 200 µM

SMILES: COc1cc2c(cc1-c1ccncc1)-c1nn(CCCNC(=O)OC(C)(C)C)c(C(=O)O)c1CC2 [Example 67]
- IC50 (MAPKAPK2 (MK-2); [1]): 165 µM
- IC50 (MK-3; [2]): > 200 µM

SMILES: COC(=O)c1nn(-c2ccc(S(C)(=O)=O)cc2)c2c1CCc1cc(OC)ccc1-2 [Example 164]
- IC50 (MAPKAPK2 (MK-2); [1]): > 200 µM
- IC50 (MK-3; [2]): > 200 µM

SMILES: O=C(O)c1c2c(nn1CCCNCCc1ccc(-c3cccnc3)cc1)-c1ccncc1CC2 [Example 55]
- IC50 (MAPKAPK2 (MK-2); read-out: MK-2 Avg. IC50): 0.522 µM
- IC50 (MK-3; read-out: MK-3 Avg. IC50): 11.2 µM

SMILES: O=C(O)c1c2c(nn1CCCNCCc1cccs1)-c1ccncc1CC2 [Example 41]
- IC50 (MAPKAPK2 (MK-2); read-out: MK-2 Avg. IC50): 0.269 µM
- IC50 (MK-3; read-out: MK-3 Avg. IC50): 15.7 µM

SMILES: CC(C)(C)OC(=O)NCCCn1nc2c(c1C(=O)O)CCc1cc(O)ccc1-2 [Example 72]
- IC50 (MAPKAPK2 (MK-2); [1]): 181 µM
- IC50 (MK-3; [2]): > 200 µM

SMILES: NS(=O)(=O)c1ccc(-n2nc(C(=O)O)c3c2-c2cn[nH]c2CC3)cc1 [Example 40]
- IC50 (MAPKAPK2 (MK-2); [5]): 145 µM
- IC50 (MK-3; [6]): ≥ 200 µM

SMILES: NCCn1nc2c(c1C(=O)O)CCc1[nH]ncc1-2 [Example 4]
- IC50 (MAPKAPK2 (MK-2); [5]): 2.43 µM
- IC50 (MK-3; [6]): 63.3 µM

SMILES: CCOC(=O)c1c2c(nn1CCCN)-c1c(SCc3ccccc3)n[nH]c1CC2 [Example 44]
- IC50 (MAPKAPK2 (MK-2); [5]): 181 µM
- IC50 (MK-3; [6]): ≥ 200 µM

SMILES: N#CCCn1nc(C(N)=O)c2c1-c1cn[nH]c1CC2 [Example 67]
- IC50 (MAPKAPK2 (MK-2); [5]): ≥ 200 µM
- IC50 (MK-3; [6]): ≥ 200 µM

SMILES: CS(=O)(=O)c1ccc(-n2nc(C(N)=O)c3c2-c2cn[nH]c2CC3)cc1 [Example 35]
- IC50 (MAPKAPK2 (MK-2); [5]): 124 µM
- IC50 (MK-3; [6]): ≥ 200 µM

SMILES: COc1cc2c(cc1-c1cccc(C(F)(F)F)c1)-c1nn(CCCNC(=O)OC(C)(C)C)c(C(=O)O)c1CC2 [Example 41]
- IC50 (MAPKAPK2 (MK-2); [1]): 63.8 µM
- IC50 (MK-3; [2]): > 200 µM

SMILES: O=C(O)c1c2c(nn1CC(F)(F)F)-c1cn[nH]c1CC2 [Example 41]
- IC50 (MAPKAPK2 (MK-2); [5]): 150 µM
- IC50 (MK-3; [6]): ≥ 200 µM

SMILES: NC(=O)c1nn(Cc2ccccc2)c2c1CCc1[nH]ncc1-2 [Example 34]
- IC50 (MAPKAPK2 (MK-2); [5]): 120 µM
- IC50 (MK-3; [6]): ≥ 200 µM

SMILES: CNC(=O)c1nn(-c2ccc(S(N)(=O)=O)cc2)c2c1CCc1c-2cnn1Cc1ccccc1 [Example 48]
- IC50 (MAPKAPK2 (MK-2); [5]): ≥ 200 µM
- IC50 (MK-3; [6]): ≥ 200 µM

SMILES: COc1cc2c(cc1OC)-c1n[nH]c(C(=O)NNc3ccc(S(N)(=O)=O)cc3)c1CC2 [Example 177]
- IC50 (MAPKAPK2 (MK-2); [1]): > 200 µM
- IC50 (MK-3; [2]): > 200 µM

SMILES: COc1cc2c(cc1-c1cccc([N+](=O)[O-])c1)-c1nn(CCCNC(=O)OC(C)(C)C)c(C(=O)O)c1CC2 [Example 37]
- IC50 (MAPKAPK2 (MK-2); [1]): 53.7 µM
- IC50 (MK-3; [2]): > 200 µM

SMILES: COc1cc2c(cc1-c1cccc([N+](=O)[O-])c1)-c1nn(CCNC(=O)OC(C)(C)C)c(C(=O)O)c1CC2 [Example 44]
- IC50 (MAPKAPK2 (MK-2); [1]): 82.2 µM
- IC50 (MK-3; [2]): > 200 µM

SMILES: CCOC(=O)c1c2c(nn1CCCNCCc1ccsc1)-c1cn[nH]c1CC2 [Example 36]
- IC50 (MAPKAPK2 (MK-2); [5]): 133 µM
- IC50 (MK-3; [6]): ≥ 200 µM

SMILES: O=C(O)c1[nH]nc2c1CCc1cc(O)ccc1-2 [Example 24]
- IC50 (MAPKAPK2 (MK-2); [1]): 19.6 µM
- IC50 (MK-3; [2]): > 200 µM

SMILES: N#CCCCn1nc2c(c1C(=O)O)CCc1[nH]ncc1-2 [Example 32]
- IC50 (MAPKAPK2 (MK-2); [5]): 116 µM
- IC50 (MK-3; [6]): ≥ 200 µM

SMILES: NCCCn1nc2c(c1C(=O)O)CCc1cnc(-c3ccccc3)nc1-2 [Example 3]
- IC50 (MAPKAPK2 (MK-2); Table 4, pyrimidylpyrazole MK-2 inhibitors, read-out: MK-2 Avg. IC50): 0.406 µM
- IC50 (MK-3; Table 4, pyrimidylpyrazole MK-2 inhibitors, read-out: NK-3 Avg. IC50): 10.8 µM

The next lines start with the values.

- IC50 (MAPKAPK2 (MK-2); [1]): 0.823 µM
- IC50 (MK-3; [2]): 115 µM
SMILES: NCCCn1nc2c(c1C(=O)O)CCc1cc(O)c(-c3cccc([N+](=O)[O-])c3)cc1-2 [Example 1]

- IC50 (MAPKAPK2 (MK-2); [3]): 2.92 µM
- IC50 (MK-3; [4]): > 20 µM
SMILES: O=C1NCCn2nc3c(c21)CCc1cnc(/C=C/c2cccc(Cl)c2)cc1-3 [Example 10]

- IC50 (MAPKAPK2 (MK-2); read-out: MK-2 Avg. IC50): 0.427 µM
- IC50 (MK-3; read-out: MK-3 Avg. IC50): 45.8 µM
SMILES: NCC1Cn2nc3c(c2C(=O)N1)CCc1cnccc1-3 (stereo not drawn) [Example 49]

- IC50 (MAPKAPK2 (MK-2); [1]): > 200 µM
- IC50 (MK-3; [2]): > 200 µM
SMILES: COc1cc2c(cc1OC)-c1n[nH]c(C(=O)n3ccnc3)c1CC2 [Example 169]

- IC50 (MAPKAPK2 (MK-2); read-out: MK-2 Avg. IC50): 0.288 µM
- IC50 (MK-3; read-out: MK-3 Avg. IC50): 15.8 µM
SMILES: COc1ccc(-c2cc3c(cn2)CCc2c-3nn3c2C(=O)NCCC3)cc1OC [Example 43]

- IC50 (MAPKAPK2 (MK-2); read-out: MK-2 Avg. IC50): 0.201 µM
- IC50 (MK-3; read-out: MK-3 Avg. IC50): 10.3 µM
SMILES: O=C(O)c1c2c(nn1CCCNCCc1ccc(Cl)c(Cl)c1)-c1ccncc1CC2 [Example 34]

- IC50 (MAPKAPK2 (MK-2); [3]): 0.749 µM
- IC50 (MK-3; [4]): > 20 µM
SMILES: O=C1NCCn2nc3c(c21)CCc1cnc(/C=C/c2ccc(F)cc2)cc1-3 [Example 8]

- IC50 (MAPKAPK2 (MK-2); [1]): 0.845 µM
- IC50 (MK-3; [2]): 40.9 µM
SMILES: NCCn1nc2c(c1C(=O)O)CCc1cc(O)c(-c3cccc([N+](=O)[O-])c3)cc1-2 [Example 2]

- IC50 (MAPKAPK2 (MK-2); read-out: MK-2 Avg. IC50): 0.0189 µM
- IC50 (MK-3; read-out: MK-3 Avg. IC50): 0.361 µM
SMILES: NCCCn1nc2c(c1C(=O)O)CCc1cnc(-c3ccc(O)cc3)cc1-2 [Example 3]

- IC50 (MAPKAPK2 (MK-2); read-out: MK-2 Avg. IC50): 0.0867 µM
- IC50 (MK-3; read-out: MK-3 Avg. IC50): 0.861 µM
SMILES: O=C1NCCn2nc3c(c21)CCc1cnc(-c2ccc(O)cc2)cc1-3 [Example 19]

- IC50 (MAPKAPK2 (MK-2); read-out: MK-2 Avg. IC50): 0.148 µM
- IC50 (MK-3; read-out: MK-3 Avg. IC50): 2.51 µM
SMILES: O=C1NCCn2nc3c(c21)CCc1cnc(-c2cccc(O)c2)cc1-3 [Example 27]
